In US20250215030A1, “STAT MODULATORS AND USES THEREOF” (Recludix Pharma, Inc., priority 2022, published 2025):

Key:
[1] = molecular target: T1, Recombinant STAT3 protein (STAT3(G127-I722)) (Homo sapiens, UniProt P40763); assay: STAT3 Fluorescence Polarization (FP) Assay; type: binding; conditions: STAT3(G127-I722) 25 nM, probe 5-FAM-GpYLPQTV-NH2 2 nM, 45-minute incubation
T1 construct: STAT3(G127-I722)
Procedure, shortened: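 STAT3(G127-I722) at 25 nM and 5-FAM-GpYLPQTV-NH2 probe at 2 nM in HEPES pH 7.4 buffer with NaCl, EDTA, Tween 20, DTT; 1% DMSO. FP read after 45 min at room temperature; IC50 by nonlinear regression of mP vs log concentration, binned A ≤100 nM to D >10 μM.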

[2] = molecular target: T2, Recombinant STAT6 protein (STAT6(W123-T658)) (Homo sapiens, UniProt P42226); assay: STAT6 Fluorescence Polarization (FP) Assay; type: binding; conditions: STAT6(W123-T658) 250 nM, probe 5-FAM-ApYKPFQDLI-NH2 2 nM, 45-minute incubation
T2 construct: STAT6(W123-T658)
T2 sequence (P42226 123-658): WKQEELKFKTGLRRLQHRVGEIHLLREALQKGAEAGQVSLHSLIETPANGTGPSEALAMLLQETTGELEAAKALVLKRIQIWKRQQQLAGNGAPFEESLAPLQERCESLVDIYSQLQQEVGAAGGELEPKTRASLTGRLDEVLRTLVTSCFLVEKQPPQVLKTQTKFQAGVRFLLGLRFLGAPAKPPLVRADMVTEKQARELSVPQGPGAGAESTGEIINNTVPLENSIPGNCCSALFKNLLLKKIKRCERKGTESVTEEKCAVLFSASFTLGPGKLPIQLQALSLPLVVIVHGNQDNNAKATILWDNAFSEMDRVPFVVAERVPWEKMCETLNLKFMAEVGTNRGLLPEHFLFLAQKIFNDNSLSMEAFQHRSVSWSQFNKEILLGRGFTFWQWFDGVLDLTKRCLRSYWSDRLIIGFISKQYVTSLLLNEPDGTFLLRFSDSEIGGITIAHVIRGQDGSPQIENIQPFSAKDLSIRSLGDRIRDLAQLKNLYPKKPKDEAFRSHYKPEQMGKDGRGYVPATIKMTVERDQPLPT
Procedure, shortened: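 STAT6 (W123-T658) at 250 nM mixed with 2 nM 5-FAM-ApYKPFQDLI-NH2 probe in HEPES pH 7.4 buffer with DTT and Tween 20, 1% DMSO final. Polarization read after 45 min at room temperature; IC50 by nonlinear regression of mP versus log concentration, reported in bins A–D.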

T1 sequence (P40763 127-722, species assumed): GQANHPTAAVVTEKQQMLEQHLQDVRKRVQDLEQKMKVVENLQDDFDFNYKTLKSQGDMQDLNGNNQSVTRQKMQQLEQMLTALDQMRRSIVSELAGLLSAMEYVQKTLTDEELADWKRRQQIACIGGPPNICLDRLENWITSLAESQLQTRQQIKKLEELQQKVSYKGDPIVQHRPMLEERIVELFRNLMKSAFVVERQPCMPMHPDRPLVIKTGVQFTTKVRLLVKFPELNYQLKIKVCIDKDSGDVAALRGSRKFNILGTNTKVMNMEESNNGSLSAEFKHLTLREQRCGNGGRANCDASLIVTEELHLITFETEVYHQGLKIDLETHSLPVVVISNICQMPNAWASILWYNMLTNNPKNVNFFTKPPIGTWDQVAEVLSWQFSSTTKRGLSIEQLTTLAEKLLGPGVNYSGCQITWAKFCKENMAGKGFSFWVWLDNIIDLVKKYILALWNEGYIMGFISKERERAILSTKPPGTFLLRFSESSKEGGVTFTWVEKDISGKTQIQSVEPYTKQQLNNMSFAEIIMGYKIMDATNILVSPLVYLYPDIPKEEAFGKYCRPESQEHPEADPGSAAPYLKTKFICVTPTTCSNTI

| IC50 [1] | IC50 [2] | Compound |
| --- | --- | --- |
| < 0.1 µM | 3 to 30 µM | COCC1(c2ccccc2)CN(C(=O)[C@@H]2CC[C@@H]3C[C@@H]4C[C@@H]4C[C@H](NC(=O)c4cc5cc(C(F)(F)P(=O)(O)O)ccc5s4)C(=O)N32)C1 [Compound 84, (difluoro(2-(((3S,6S,7aR,8aS,9aR)-3-(3-(methoxymethyl)-3-phenylazetidine-1-carbonyl)-5-oxodecahydro-1H-cyclopropa[d]pyrrolo[1,2-a]azocin-6-yl)carbamoyl)benzo[b]thiophen-5-yl)methyl)phosphonic acid] |
| < 0.1 µM | 0.3 to 3 µM | Cc1ccccc1C1CN(C(=O)[C@@H]2CC[C@@H]3C[C@H]4C[C@H]4C[C@H](NC(=O)c4cc5cc(C(F)(F)P(=O)(O)O)ccc5s4)C(=O)N32)C1 [Compound 85, (difluoro(2-(((3S,6S,7aS,8aR,9aR)-5-oxo-3-(3-(o-tolyl)azetidine-1-carbonyl)decahydro-1H-cyclopropa[d]pyrrolo[1,2-a]azocin-6-yl)carbamoyl)benzo[b]thiophen-5-yl)methyl)phosphonic acid] |
| < 0.1 µM | 3 to 30 µM | O=C(N[C@H]1C[C@@H]2C[C@@H]2C[C@H]2CC[C@@H](C(=O)N3CC(C(=O)N4CC(c5ccccn5)C4)C3)N2C1=O)c1cc2cc(C(F)(F)P(=O)(O)O)ccc2s1 [Compound 86, (difluoro(2-(((3S,6S,7aS,8aR,9aR)-5-oxo-3-(3-(3-(pyridin-2-yl)azetidine-1-carbonyl)azetidine-1-carbonyl)decahydro-1H-cyclopropa[d]pyrrolo[1,2-a]azocin-6-yl)carbamoyl)benzo[b]thiophen-5-yl)methyl)phosphonic acid] |
| < 0.1 µM | 3 to 30 µM | O=C(N[C@H]1C[C@@H]2C[C@@H]2C[C@H]2CC[C@@H](C(=O)N3CC(O)(c4ccccn4)C3)N2C1=O)c1cc2cc(C(F)(F)P(=O)(O)O)ccc2s1 [Compound 87, (difluoro(2-(((3S,6S,7aS,8aR,9aR)-3-(3-hydroxy-3-(pyridin-2-yl)azetidine-1-carbonyl)-5-oxodecahydro-1H-cyclopropa[d]pyrrolo[1,2-a]azocin-6-yl)carbamoyl)benzo[b]thiophen-5-yl)methyl)phosphonic acid] |
| < 0.1 µM | 0.3 to 3 µM | COc1ccc(C2CCN(C(=O)[C@@H]3CC[C@@H]4C[C@H]5C[C@H]5C[C@H](NC(=O)c5cc6cc(C(F)(F)P(=O)(O)O)ccc6s5)C(=O)N43)C2)cn1 (stereo partly drawn) [Compound 88, (difluoro(2-(((3S,6S,7aS,8aR,9aR)-3-(3-(6-methoxypyridin-3-yl)pyrrolidine-1-carbonyl)-5-oxodecahydro-1H-cyclopropa[d]pyrrolo[1,2-a]azocin-6-yl)carbamoyl)benzo[b]thiophen-5-yl)methyl)phosphonic acid] |
| < 0.1 µM | 0.3 to 3 µM | N#CC1(c2ccccn2)CN(C(=O)[C@@H]2CC[C@@H]3C[C@H]4C[C@H]4C[C@H](NC(=O)c4cc5cc(C(F)(F)P(=O)(O)O)ccc5s4)C(=O)N32)C1 [Compound 89, ((2-(((3S,6S,7aS,8aR,9aR)-3-(3-cyano-3-(pyridin-2-yl)azetidine-1-carbonyl)-5-oxodecahydro-1H-cyclopropa[d]pyrrolo[1,2-a]azocin-6-yl)carbamoyl)benzo[b]thiophen-5-yl)difluoromethyl)phosphonic acid] |
| < 0.1 µM | 0.3 to 3 µM | O=C(N[C@H]1C[C@@H]2C[C@@H]2C[C@H]2CC[C@@H](C(=O)N3CC4(CC(=O)c5nccn54)C3)N2C1=O)c1cc2cc(C(F)(F)P(=O)(O)O)ccc2s1 [Compound 90, (difluoro(2-(((3S,6S,7aS,8aR,9aR)-5-oxo-3-(7′-oxo-6′,7′-dihydrospiro[azetidine-3,5′-pyrrolo[1,2-a]imidazole]-1-carbonyl)decahydro-1H-cyclopropa[d]pyrrolo[1,2-a]azocin-6-yl)carbamoyl)benzo[b]thiophen-5-yl)methyl)phosphonic acid] |
| 0.1 to 1 µM | 3 to 30 µM | O=C(N[C@H]1C[C@@H]2C[C@@H]2C[C@H]2CC[C@@H](C(=O)N3CC(N4CCOCC4)C3)N2C1=O)c1cc2cc(C(F)(F)P(=O)(O)O)ccc2s1 [Compound 91, (difluoro(2-(((3S,6S,7aS,8aR,9aR)-3-(3-morpholinoazetidine-1-carbonyl)-5-oxodecahydro-1H-cyclopropa[d]pyrrolo[1,2-a]azocin-6-yl)carbamoyl)benzo[b]thiophen-5-yl)methyl)phosphonic acid] |
| 0.1 to 1 µM | 3 to 30 µM | CC(=O)N1CCC2(C1)CN(C(=O)[C@@H]1CC[C@@H]3C[C@H]4C[C@H]4C[C@H](NC(=O)c4cc5cc(C(F)(F)P(=O)(O)O)ccc5s4)C(=O)N31)C2 [Compound 92, ((2-(((35,6S,7aS,8aR,9aR)-3-(6-acetyl-2,6-diazaspiro[3.4]octane-2-carbonyl)-5-oxodecahydro-1H-cyclopropa[d]pyrrolo[1,2-a]azocin-6-yl)carbamoyl)benzo[b]thiophen-5-yl)difluoromethyl)phosphonic acid] |
| 0.1 to 1 µM | 3 to 30 µM | CC1(C(=O)N2CCOCC2)CN(C(=O)[C@@H]2CC[C@@H]3C[C@H]4C[C@H]4C[C@H](NC(=O)c4cc5cc(C(F)(F)P(=O)(O)O)ccc5s4)C(=O)N32)C1 [Compound 93, (difluoro(2-(((3S,6S,7aS,8aR,9aR)-3-(3-methyl-3-(morpholine-4-carbonyl)azetidine-1-carbonyl)-5-oxodecahydro-1H-cyclopropa[d]pyrrolo[1,2-a]azocin-6-yl)carbamoyl)benzo[b]thiophen-5-yl)methyl)phosphonic acid] |
| < 0.1 µM | 3 to 30 µM | O=C(N[C@H]1C[C@@H]2C[C@@H]2C[C@H]2CC[C@@H](C(=O)N3CC(n4ccnc4)C3)N2C1=O)c1cc2cc(C(F)(F)P(=O)(O)O)ccc2s1 [Compound 94] |
| 0.1 to 1 µM | 3 to 30 µM | O=C(N[C@H]1C[C@@H]2C[C@@H]2C[C@H]2CC[C@@H](C(=O)N3CC(F)(C(=O)N4CCOCC4)C3)N2C1=O)c1cc2cc(C(F)(F)P(=O)(O)O)ccc2s1 [Compound 95, (difluoro(2-(((3S,6S,7aS,8aR,9aR)-3-(3-fluoro-3-(morpholine-4-carbonyl)azetidine-1-carbonyl)-5-oxodecahydro-1H-cyclopropa[d]pyrrolo[1,2-a]azocin-6-yl)carbamoyl)benzo[b]thiophen-5-yl)methyl)phosphonic acid] |
| 0.1 to 1 µM | 3 to 30 µM | O=C(N[C@H]1C[C@@H]2C[C@@H]2C[C@H]2CC[C@@H](C(=O)N3CC(C4CCOCC4)C3)N2C1=O)c1cc2cc(C(F)(F)P(=O)(O)O)ccc2s1 [Compound 96, (difluoro(2-(((3S,6S,7aS,8aR,9aR)-5-ox0-3-(3-(tetrahydro-2H-pyran-4-yl)azetidine-1-carbonyl)decahydro-1H-cyclopropa[d]pyrrolo[1,2-a]azocin-6-yl)carbamoyl)benzo[b]thiophen-5-yl)methyl)phosphonic acid] |
| < 0.1 µM | 3 to 30 µM | O=C(N[C@H]1C[C@@H]2C[C@@H]2C[C@H]2CC[C@@H](C(=O)N3CC(c4ccccn4)C3)N2C1=O)c1cc2cc(C(F)(F)P(=O)(O)O)ccc2s1 [Compound 97, (difluoro(2-(((3S,6S,7aS,8aR,9aR)-5-ox0-3-(3-(pyridin-2-yl)azetidine-1-carbonyl)decahydro-1H-cyclopropa[d]pyrrolo[1,2-a]azocin-6-yl)carbamoyl)benzo[b]thiophen-5-yl)methyl)phosphonic acid] |
| < 0.1 µM | 3 to 30 µM | O=C(N[C@H]1C[C@@H]2C[C@@H]2C[C@H]2CC[C@@H](C(=O)N3CC(c4cccnc4)C3)N2C1=O)c1cc2cc(C(F)(F)P(=O)(O)O)ccc2s1 [Compound 100, (difluoro(2-(((3S,6S,7aS,8aR,9aR)-5-ox0-3-(3-(pyridin-3-yl)azetidine-1-carbonyl)decahydro-1H-cyclopropa[d]pyrrolo[1,2-a]azocin-6-yl)carbamoyl)benzo[b]thiophen-5-yl)methyl)phosphonic acid] |
| 0.1 to 1 µM | 0.3 to 3 µM | CC(C(N)=O)c1cc(-c2ccccc2)ccc1NC(=O)[C@@H]1CC[C@@H]2C[C@H]3C[C@H]3C[C@H](NC(=O)c3cc4cc(C(F)(F)P(=O)(O)O)ccc4s3)C(=O)N21 (stereo partly shown) [Compound 101] |
| < 0.1 µM | 3 to 30 µM | COC1CN(C(=O)C2CN(C(=O)[C@@H]3CC[C@@H]4C[C@H]5C[C@H]5C[C@H](NC(=O)c5cc6cc(C(F)(F)P(=O)(O)O)ccc6s5)C(=O)N43)C2)C1 [Compound 102, (difluoro(2-(((3S,6S,7aS,8aR,9aR)-3-(3-(3-methoxyazetidine-1-carbonyl)azetidine-1-carbonyl)-5-oxodecahydro-1H-cyclopropa[d]pyrrolo[1,2-a]azocin-6-yl)carbamoyl)benzo[b]thiophen-5-yl)methyl)phosphonic acid] |
